Test results from the supplement of paper PMC10307832.

Tests used:
Test in all cases: relative viability (nuclei count vs DMSO), 5 days (fraction); higher = more cells survive
[1] = tested on: UMC-11
How it was run: (§1)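 Relative viability equals treated-well nuclei counts divided by vehicle-well nuclei counts. Counts came from 4× images of lung cancer cell lines grown in 1536-well plates for 5 days after pin-tool dosing on the day after seeding. Dosing used one drug alone or a fixed anchor-drug dose plus five library-drug doses (not always all listed) in √10 steps, and values are medians of duplicate plates.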

[2] = tested on: SW 1573
How it was run: as §1

[3] = tested on: NCI-H2009
How it was run: as §1

[4] = tested on: A-427
How it was run: as §1

[5] = tested on: NCI-H1793
How it was run: as §1

[6] = tested on: NCI-H1944
How it was run: as §1

[7] = tested on: NCI-H1915
How it was run: as §1

[8] = tested on: EPLC-272H
How it was run: as §1

[9] = tested on: NCI-H358
How it was run: as §1

[10] = tested on: ABC-1
How it was run: as §1

[11] = tested on: NCI-H2023
How it was run: as §1

[12] = tested on: HCC-15
How it was run: as §1

[13] = tested on: RERF-LC-KJ
How it was run: as §1

[14] = tested on: NCI-H322M
How it was run: as §1

[15] = tested on: NCI-H838
How it was run: as §1

[16] = tested on: NCI-H441
How it was run: as §1

[17] = tested on: NCI-H1734
How it was run: as §1

[18] = tested on: NCI-H647
How it was run: as §1

[19] = tested on: LK-2
How it was run: as §1

[20] = tested on: LC-2-ad
How it was run: as §1

[21] = tested on: NCI-H2347
How it was run: as §1

With `Cc1cn(-c2cc(NC(=O)c3ccc(C)c(Nc4nccc(-c5cccnc5)n4)c3)cc(C(F)(F)F)c2)cn1` [Nilotinib] + C[C@]1(O)C[C@@H](c2nc(-c3ccc4ccc(-c5ccccc5)nc4c3)c3c(N)nccn32)C1 [Linsitinib] (partner 1 µM) the relative viability ([1]; first compound 0.001 µM) was 1, the relative viability ([1]; first compound 0.003162 µM) was 1.26 and the relative viability ([1]; first compound 0.01 µM) was 1.27. The relative viability ([1]; first compound 0.1 µM) was 1.13, the relative viability ([2]; first compound 0.001 µM) was 0.939 and the relative viability ([2]; first compound 0.003162 µM) was 0.935. For the same compound, the relative viability ([2]; first compound 0.01 µM) was 0.73, the relative viability ([2]; first compound 0.03162 µM) was 0.756 and the relative viability ([2]; first compound 0.1 µM) was 0.841. For the same compound, the relative viability ([3]; first compound 0.001 µM) was 1.07, the relative viability ([3]; first compound 0.003162 µM) was 1.28 and the relative viability ([3]; first compound 0.01 µM) was 1.22. It also gave a relative viability ([3]; first compound 0.03162 µM) of 1.18, a relative viability ([3]; first compound 0.1 µM) of 1.15 and a relative viability ([4]; first compound 0.001 µM) of 1.13. It also gave a relative viability ([4]; first compound 0.01 µM) of 1.26, a relative viability ([4]; first compound 0.03162 µM) of 1.16 and a relative viability ([4]; first compound 0.1 µM) of 1.01. It also gave a relative viability ([5]; first compound 0.003162 µM) of 1.09, a relative viability ([5]; first compound 0.01 µM) of 1.41 and a relative viability ([5]; first compound 0.03162 µM) of 0.734. For the same compound, the relative viability ([5]; first compound 0.1 µM) was 0.443, the relative viability ([6]; first compound 0.001 µM) was 1.08 and the relative viability ([6]; first compound 0.003162 µM) was 1.41. It also gave a relative viability ([6]; first compound 0.01 µM) of 1.5, a relative viability ([6]; first compound 0.03162 µM) of 1.33 and a relative viability ([6]; first compound 0.1 µM) of 1.36. It also gave a relative viability ([7]; first compound 0.001 µM) of 1.01, a relative viability ([7]; first compound 0.003162 µM) of 1.09 and a relative viability ([7]; first compound 0.03162 µM) of 1.06. It also gave a relative viability ([7]; first compound 0.1 µM) of 1.09, a relative viability ([8]; first compound 0.001 µM) of 1.38 and a relative viability ([8]; first compound 0.003162 µM) of 1.34. For the same compound, the relative viability ([8]; first compound 0.01 µM) was 1.42, the relative viability ([8]; first compound 0.03162 µM) was 1.08 and the relative viability ([8]; first compound 0.1 µM) was 1.18. It also gave a relative viability ([9]; first compound 0.001 µM) of 0.67, a relative viability ([9]; first compound 0.003162 µM) of 0.893 and a relative viability ([9]; first compound 0.01 µM) of 0.847. The relative viability ([9]; first compound 0.03162 µM) was 0.474, the relative viability ([9]; first compound 0.1 µM) was 0.612 and the relative viability ([10]; first compound 0.001 µM) was 0.985. The relative viability ([10]; first compound 0.003162 µM) was 0.862, the relative viability ([10]; first compound 0.01 µM) was 0.724 and the relative viability ([10]; first compound 0.03162 µM) was 0.683. It also gave a relative viability ([10]; first compound 0.1 µM) of 0.554, a relative viability ([11]; first compound 0.001 µM) of 0.74 and a relative viability ([11]; first compound 0.003162 µM) of 0.735. It also gave a relative viability ([11]; first compound 0.01 µM) of 0.798, a relative viability ([11]; first compound 0.03162 µM) of 0.666 and a relative viability ([11]; first compound 0.1 µM) of 0.525. It also gave a relative viability ([12]; first compound 0.001 µM) of 0.874, a relative viability ([12]; first compound 0.003162 µM) of 1.01 and a relative viability ([12]; first compound 0.01 µM) of 0.987. For the same compound, the relative viability ([12]; first compound 0.03162 µM) was 0.743, the relative viability ([12]; first compound 0.1 µM) was 0.744 and the relative viability ([13]; first compound 0.001 µM) was 0.882. For the same compound, the relative viability ([13]; first compound 0.003162 µM) was 0.941, the relative viability ([13]; first compound 0.01 µM) was 1.05 and the relative viability ([13]; first compound 0.03162 µM) was 0.853. The relative viability ([13]; first compound 0.1 µM) was 0.917, the relative viability ([14]; first compound 0.001 µM) was 0.747 and the relative viability ([14]; first compound 0.003162 µM) was 1.03. The relative viability ([14]; first compound 0.03162 µM) was 0.76, the relative viability ([14]; first compound 0.1 µM) was 0.932 and the relative viability ([15]; first compound 0.001 µM) was 0.989. The relative viability ([15]; first compound 0.003162 µM) was 1.37, the relative viability ([15]; first compound 0.01 µM) was 1.39 and the relative viability ([15]; first compound 0.03162 µM) was 0.967. It also gave a relative viability ([15]; first compound 0.1 µM) of 0.968, a relative viability ([16]; first compound 0.001 µM) of 0.503 and a relative viability ([16]; first compound 0.003162 µM) of 0.588. It also gave a relative viability ([16]; first compound 0.01 µM) of 0.482, a relative viability ([16]; first compound 0.1 µM) of 0.512 and a relative viability ([17]; first compound 0.001 µM) of 0.882. For the same compound, the relative viability ([17]; first compound 0.003162 µM) was 0.977, the relative viability ([17]; first compound 0.01 µM) was 0.972 and the relative viability ([17]; first compound 0.03162 µM) was 0.669. The relative viability ([17]; first compound 0.1 µM) was 0.561, the relative viability ([18]; first compound 0.001 µM) was 1.13 and the relative viability ([18]; first compound 0.003162 µM) was 1.43. For the same compound, the relative viability ([18]; first compound 0.03162 µM) was 1.07, the relative viability ([18]; first compound 0.1 µM) was 1.02 and the relative viability ([19]; first compound 0.001 µM) was 0.517. For the same compound, the relative viability ([19]; first compound 0.003162 µM) was 0.515, the relative viability ([19]; first compound 0.01 µM) was 0.442 and the relative viability ([19]; first compound 0.03162 µM) was 0.405. For the same compound, the relative viability ([19]; first compound 0.1 µM) was 0.487, the relative viability ([20]; first compound 0.001 µM) was 0.862 and the relative viability ([20]; first compound 0.003162 µM) was 0.985. For the same compound, the relative viability ([20]; first compound 0.01 µM) was 1.02, the relative viability ([20]; first compound 0.03162 µM) was 0.897 and the relative viability ([20]; first compound 0.1 µM) was 0.735. The relative viability ([21]; first compound 0.001 µM) was 1.01, the relative viability ([21]; first compound 0.003162 µM) was 1.11 and the relative viability ([21]; first compound 0.01 µM) was 1.1. The relative viability ([21]; first compound 0.03162 µM) was 0.903 and the relative viability ([21]; first compound 0.1 µM) was 0.909.
